In US9499535B2, “Kinase inhibitors” (ORIGENIS GMBH, priority 2011, dated 2016):
pIC50, pKi: −log10 of the molar value.

How the values were obtained:
SYK kinase = target: T1, SYK kinase (Homo sapiens, UniProt P43405); test: SYK assay (OMNIA Kinase Assay, Invitrogen); type: biochemical; details: apparent Ki calculated from the IC50 using the Cheng-Prusoff equation; 1 mM ATP, 10 μM Peptide Substrate; read-out: SYK Activities: Ki
T1 construct: purchased Invitrogen, Carlsbad
Outline: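 Continuous SOX-fluorescence (Omnia) readout of Tyr 7 peptide (10 μM) phosphorylation with 1 mM ATP and 0.2 mM DTT at 30° C, started by SYK addition. Fluorescence (λex 360/λem 485 nm) was read every 30 s for 30 min. IC50 from velocity vs concentration; apparent Ki via Cheng-Prusoff.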

LRRK2 = LRRK2 (Homo sapiens, UniProt Q5S007); test: LRRK2 assay (LanthaScreen Eu Kinase Binding Assay); details: 5 nM LRRK2, 10 nM tracer 236, RT 1 h; read-out: LRRK2 Activites: IC50
Outline: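 Kinase binding was detected by europium anti-tag antibody FRET with a competing tracer, so inhibitor binding lowers the FRET signal. IC50 came from a variable-slope sigmoidal fit of emission ratio against inhibitor concentration.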

MYLK = MYLK (Homo sapiens, UniProt Q15746); test: MYLK assay (LanthaScreen Eu Kinase Binding Assay); details: 5 nM MYLK, 30 nM tracer 236, RT 1 h; read-out: MYLK Activites: IC50
Description: In the assay LanthaScreen™ Eu Kinase Binding Assay by Invitrogen Corporation (Carlsbad) the effect of invention of a compound on the phosphorylation is determined by measurement of fluorescence intensity emission ratio based on the binding and displacement of a proprietary, Alexa Fluor® 647-labeled, ATP-competitive kinase inhibitor scaffold (kinase tracer) to the kinase of interest as described above.
To the wells of an 384 well small volume plate (Greiner, Frickenhausen) are added (i) the compound under test in 5% DMSO/distilled water (5 μl), (ii) 5 μl of the kinase antibody mixture resulting in a final concentration 5 nM MYLK, 2 nM EU-Anti-GST antibody in 1× kinase buffer A. The reaction was started with addition of (iii) 5 μl resulting in a final concentration of 30 nM tracer 236. The assay plate was incubated at RT for 1 h and fluorescence intensitiy readings were collected using a TECAN M1000 at two wavelengthes of λex 340/λem 615 nm and λex 340/λem 665 nm with a delay time of 100 μs and an integration time of 200 μs after 60 minutes. The emission ratio was calculated by division of the acceptor/tracer emission ([…]) by the antibody/donor emission ([…]). The inhibitor concentration was plotted versus the emission ratio to determine the IC50 using XLFit 5.0 (IDBS, Guildford) to fit to a sigmoidal dose response curve with a variable slope.

MYLK, sequence (Q15746 whole entry): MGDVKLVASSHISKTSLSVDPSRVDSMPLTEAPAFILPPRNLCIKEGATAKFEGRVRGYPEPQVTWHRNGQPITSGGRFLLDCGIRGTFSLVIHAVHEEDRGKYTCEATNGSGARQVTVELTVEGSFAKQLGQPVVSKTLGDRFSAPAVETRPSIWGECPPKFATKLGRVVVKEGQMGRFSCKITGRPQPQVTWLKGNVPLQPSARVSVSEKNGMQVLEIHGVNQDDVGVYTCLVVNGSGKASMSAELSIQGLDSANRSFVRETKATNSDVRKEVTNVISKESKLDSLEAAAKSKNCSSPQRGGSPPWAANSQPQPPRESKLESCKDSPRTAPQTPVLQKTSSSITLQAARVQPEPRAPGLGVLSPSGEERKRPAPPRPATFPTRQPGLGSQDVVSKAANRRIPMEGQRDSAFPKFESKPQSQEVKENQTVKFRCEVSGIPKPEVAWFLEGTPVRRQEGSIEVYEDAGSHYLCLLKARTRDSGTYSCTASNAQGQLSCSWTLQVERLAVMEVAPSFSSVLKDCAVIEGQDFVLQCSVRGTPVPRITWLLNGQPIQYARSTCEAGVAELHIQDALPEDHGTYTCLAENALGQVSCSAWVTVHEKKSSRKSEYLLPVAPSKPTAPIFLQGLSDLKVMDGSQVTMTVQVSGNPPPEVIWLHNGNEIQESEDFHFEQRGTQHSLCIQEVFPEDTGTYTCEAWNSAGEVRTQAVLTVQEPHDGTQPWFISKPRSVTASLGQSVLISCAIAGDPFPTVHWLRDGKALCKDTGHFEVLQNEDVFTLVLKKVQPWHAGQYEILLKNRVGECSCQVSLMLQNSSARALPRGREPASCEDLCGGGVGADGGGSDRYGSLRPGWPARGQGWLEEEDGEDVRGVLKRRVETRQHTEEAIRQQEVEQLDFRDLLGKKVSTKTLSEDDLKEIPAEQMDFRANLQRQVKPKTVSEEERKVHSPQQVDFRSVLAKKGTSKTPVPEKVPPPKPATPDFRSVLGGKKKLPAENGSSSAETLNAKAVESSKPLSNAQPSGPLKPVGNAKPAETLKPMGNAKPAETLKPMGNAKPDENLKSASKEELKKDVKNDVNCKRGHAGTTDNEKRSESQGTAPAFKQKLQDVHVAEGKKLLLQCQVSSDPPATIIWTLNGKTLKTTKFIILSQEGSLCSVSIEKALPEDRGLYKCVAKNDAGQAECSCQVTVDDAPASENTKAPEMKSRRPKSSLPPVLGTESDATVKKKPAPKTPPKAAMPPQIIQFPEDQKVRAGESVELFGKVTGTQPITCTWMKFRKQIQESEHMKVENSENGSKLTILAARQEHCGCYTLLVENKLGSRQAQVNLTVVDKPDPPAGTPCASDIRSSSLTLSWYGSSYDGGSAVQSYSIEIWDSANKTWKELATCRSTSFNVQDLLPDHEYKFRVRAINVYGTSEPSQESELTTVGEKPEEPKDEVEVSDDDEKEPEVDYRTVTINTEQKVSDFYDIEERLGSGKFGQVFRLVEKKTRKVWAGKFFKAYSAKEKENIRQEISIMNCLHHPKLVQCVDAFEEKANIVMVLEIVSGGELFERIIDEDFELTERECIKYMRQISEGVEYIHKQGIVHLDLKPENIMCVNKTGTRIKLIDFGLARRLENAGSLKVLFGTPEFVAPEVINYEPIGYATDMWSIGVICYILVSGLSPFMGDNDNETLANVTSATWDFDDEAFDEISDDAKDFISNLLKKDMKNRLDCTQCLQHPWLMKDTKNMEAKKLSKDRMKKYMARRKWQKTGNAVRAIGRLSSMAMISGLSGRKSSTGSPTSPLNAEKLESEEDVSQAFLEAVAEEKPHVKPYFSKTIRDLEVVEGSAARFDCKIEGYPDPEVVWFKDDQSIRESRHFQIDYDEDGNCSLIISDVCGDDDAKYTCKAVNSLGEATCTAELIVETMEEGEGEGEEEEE
LRRK2, sequence (Q5S007 970-2527 limits assumed): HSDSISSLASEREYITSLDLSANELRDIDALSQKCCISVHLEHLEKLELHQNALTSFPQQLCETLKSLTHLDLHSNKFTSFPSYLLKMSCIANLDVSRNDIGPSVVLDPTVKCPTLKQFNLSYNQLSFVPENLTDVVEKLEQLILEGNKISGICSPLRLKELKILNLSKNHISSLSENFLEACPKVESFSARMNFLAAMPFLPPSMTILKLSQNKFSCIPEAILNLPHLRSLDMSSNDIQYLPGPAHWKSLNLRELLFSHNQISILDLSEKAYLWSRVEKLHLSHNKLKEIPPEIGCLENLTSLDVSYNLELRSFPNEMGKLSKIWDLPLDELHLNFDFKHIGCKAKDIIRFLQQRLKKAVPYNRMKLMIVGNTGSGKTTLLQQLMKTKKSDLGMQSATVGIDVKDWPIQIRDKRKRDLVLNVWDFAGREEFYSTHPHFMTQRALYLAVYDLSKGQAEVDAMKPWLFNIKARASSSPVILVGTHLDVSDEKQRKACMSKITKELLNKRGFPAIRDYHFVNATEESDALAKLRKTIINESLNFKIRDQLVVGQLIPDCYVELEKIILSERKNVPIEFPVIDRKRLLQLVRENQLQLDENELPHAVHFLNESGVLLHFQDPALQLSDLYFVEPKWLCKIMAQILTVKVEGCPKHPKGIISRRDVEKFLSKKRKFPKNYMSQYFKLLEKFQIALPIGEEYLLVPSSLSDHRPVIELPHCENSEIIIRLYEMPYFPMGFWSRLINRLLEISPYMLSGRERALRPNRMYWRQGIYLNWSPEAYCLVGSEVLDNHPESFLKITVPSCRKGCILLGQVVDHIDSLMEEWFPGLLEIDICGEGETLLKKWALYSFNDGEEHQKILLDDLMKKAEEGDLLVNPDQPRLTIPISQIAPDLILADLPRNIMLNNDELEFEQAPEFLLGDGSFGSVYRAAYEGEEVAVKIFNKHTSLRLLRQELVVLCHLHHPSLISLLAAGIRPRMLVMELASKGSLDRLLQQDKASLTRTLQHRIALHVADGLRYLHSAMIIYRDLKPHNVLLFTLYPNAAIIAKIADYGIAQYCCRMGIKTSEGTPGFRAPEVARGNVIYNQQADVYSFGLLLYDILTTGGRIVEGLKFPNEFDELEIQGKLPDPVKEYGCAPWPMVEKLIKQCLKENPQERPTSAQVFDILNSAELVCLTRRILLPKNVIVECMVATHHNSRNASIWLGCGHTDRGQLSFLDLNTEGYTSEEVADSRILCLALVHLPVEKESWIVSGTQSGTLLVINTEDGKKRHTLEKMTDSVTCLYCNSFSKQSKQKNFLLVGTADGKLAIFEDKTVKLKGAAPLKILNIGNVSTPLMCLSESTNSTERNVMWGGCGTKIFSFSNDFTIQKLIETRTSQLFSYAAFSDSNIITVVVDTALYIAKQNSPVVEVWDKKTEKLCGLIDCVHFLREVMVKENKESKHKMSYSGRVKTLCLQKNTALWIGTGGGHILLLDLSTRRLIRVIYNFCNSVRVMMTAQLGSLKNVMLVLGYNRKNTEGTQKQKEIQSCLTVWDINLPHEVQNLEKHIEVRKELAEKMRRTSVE

Row | Structure (SMILES) | pKi (SYK kinase) | pIC50 (LRRK2) | pIC50 (MYLK)
1 | COc1ccc2nc(Nc3ccc(OC)c(O)c3)c3n[nH]cc3c2c1 [Example #118, 2-Methoxy-5-(8-methoxy-2H-pyrazolo[3,4-c]quinolin-4-ylamino)-phenol] | > 8.00 | 7.00 to 8.00 | > 5.30
2 | COc1ccc2nc(Nc3ccc(-c4nnn[nH]4)cc3)c3[nH]ncc3c2c1 [Example #98, (8-Methoxy-3H-pyrazolo[3,4-c]quinolin-4-yl)-[4-(1H-tetrazol-5-yl)-phenyl]-amine] | 6.00 to 7.00 | 6.00 to 7.00 | > 5.30
3 | COc1ccc2nc(Nc3ccc(N(C)C4CCN(C)CC4)cc3)c3n[nH]cc3c2c1 [Example #192, N-(8-Methoxy-2H-pyrazolo[3,4-c]quinolin-4-yl)-N′-methyl-N′-(1-methyl-piperidin-4-yl)-benzene-1,4-diamine] | 7.00 to 8.00 | 7.00 to 8.00 | > 5.30
4 | COc1cccc2c1nc(Nc1ccc(N3CCN(C)CC3)cc1)c1n[nH]cc12 [Example #166, (6-Methoxy-2H-pyrazolo[3,4-c]quinolin-4-yl)-[4-(4-methyl-piperazin-1-yl)-phenyl]-amine] | 7.00 to 8.00 | 6.00 to 7.00 | > 5.30
5 | COc1ccc2nc(Nc3ccc(N4CCOCC4=O)cc3)c3n[nH]cc3c2c1 [Example #87, 4-[4-(8-Methoxy-2H-pyrazolo[3,4-c]quinolin-4-ylamino)-phenyl]-morpholin-3-one] | 6.00 to 7.00 | 7.00 to 8.00 | > 5.30
6 | COc1ccc2nc(Nc3cccc(S(N)(=O)=O)c3)c3n[nH]cc3c2c1 [Example #131, 3-(8-Methoxy-2H-pyrazolo[3,4-c]quinolin-4-ylamino)-benzenesulfonamide] | 6.00 to 7.00 | 7.00 to 8.00 | > 5.30
7 | COc1cc2nc(Nc3ccc(N4CCN(C)CC4)cc3)c3n[nH]cc3c2cc1OC [Example #134, (7,8-Dimethoxy-2H-pyrazolo[3,4-c]quinolin-4-yl)-[4-(4-methyl-piperazin-1-yl)-phenyl]-amine] | 7.00 to 8.00 | 6.00 to 7.00 | > 5.30
8 | COc1ccc2nc(Nc3ccc(NC(C)=O)cc3)c3n[nH]cc3c2c1 [Example #128, N-[4-(8-Methoxy-2H-pyrazolo[3,4-c]quinolin-4-ylamino)-phenyl]-acetamide] | 7.00 to 8.00 | 6.00 to 7.00 | > 5.30
9 | COc1ccc2nc(Nc3ccc4[nH]c(=O)[nH]c4c3)c3n[nH]cc3c2c1 [Example #71, 5-(8-Methoxy-2H-pyrazolo[3,4-c]quinolin-4-ylamino)-1,3-dihydro-benzoimidazol-2-one] | 7.00 to 8.00 | 6.00 to 7.00 | > 5.30
10 | COc1ccc(Nc2nc3c(OC)cccc3c3c[nH]nc23)cc1OC [Example #167, (3,4-Dimethoxy-phenyl)-(6-methoxy-2H-pyrazolo[3,4-c]quinolin-4-yl)-amine] | 7.00 to 8.00 | 6.00 to 7.00 | > 5.30
11 | COc1ccc2nc(Nc3cccc(C(N)=O)c3)c3n[nH]cc3c2c1 [Example #52, 3-(8-Methoxy-2H-pyrazolo[3,4-c]quinolin-4-ylamino)-benzamide] | 6.00 to 7.00 | 6.00 to 7.00 | > 5.30
12 | COc1ccc(Nc2nc3cc(OC)c(OC)cc3c3c[nH]nc23)cc1O [Example #152, 5-(7,8-Dimethoxy-2H-pyrazolo[3,4-c]quinolin-4-ylamino)-2-methoxy-phenol] | 7.00 to 8.00 | 6.00 to 7.00 | > 5.30
13 | COc1ccc2nc(Nc3ccc(CC(N)=O)cc3)c3[nH]ncc3c2c1 [Example #112, 2-[4-(8-Methoxy-3H-pyrazolo[3,4-c]quinolin-4-ylamino)-phenyl]-acetamide] | 7.00 to 8.00 | 6.00 to 7.00 | > 5.30
14 | COc1ccc2nc(Nc3ccc(S(N)(=O)=O)cc3)c3n[nH]cc3c2c1 [Example #132, 4-(8-Methoxy-2H-pyrazolo[3,4-c]quinolin-4-ylamino)-benzenesulfonamide] | 7.00 to 8.00 | 7.00 to 8.00 | > 5.30

More lines, now with the values ahead:

Row | pKi (SYK kinase) | pIC50 (LRRK2) | pIC50 (MYLK) | Structure (SMILES)
15 | 6.00 to 7.00 | 6.00 to 7.00 | > 5.30 | COc1ccc2nc(Nc3cnc4c(c3)CN(C)CC4)c3n[nH]cc3c2c1 [Example #230, (8-Methoxy-2H-pyrazolo[3,4-c]quinolin-4-yl)-(6-methyl-5,6,7,8-tetrahydro-[1,6]naphthyridin-3-yl)-amine]
16 | 7.00 to 8.00 | 6.00 to 7.00 | > 5.30 | Cc1[nH]nc2c(Nc3ccc(N4CCN(C)CC4)cc3)nc3ccccc3c12 [Example #208, [4-(4-Methyl-piperazin-1-yl)-phenyl]-(1-methyl-2H-pyrazolo[3,4-c]quinolin-4-yl)-amine]
17 | 7.00 to 8.00 | 7.00 to 8.00 | > 5.30 | COCC1CCCN1C(=O)c1ccc(Nc2nc3ccc(OC)cc3c3c[nH]nc23)cc1 (stereo not drawn) [Example #301, (4-((8-methoxy-2H-pyrazolo[3,4-c]quinolin-4-yl)amino)phenyl)(2-(methoxymethyl)pyrrolidin-1-yl)methanone]
18 | 7.00 to 8.00 | 6.00 to 7.00 | > 5.30 | COc1ccc2c(c1)nc(Nc1ccc3[nH]c(C)nc3c1)c1n[nH]cc12 [Example #264, (7-Methoxy-2H-pyrazolo[3,4-c]quinolin-4-yl)-(2-methyl-1H-benzoimidazol-5-yl)-amine]
19 | 7.00 to 8.00 | 6.00 to 7.00 | > 5.30 | COc1ccc2nc(Nc3ccc(CCN4CCOCC4)cc3)c3n[nH]cc3c2c1 [Example #193, (8-Methoxy-2H-pyrazolo[3,4-c]quinolin-4-yl)-[4-(2-morpholin-4-yl-ethyl)-phenyl]-amine]
20 | 7.00 to 8.00 | 6.00 to 7.00 | > 5.30 | COc1ccc2nc(Nc3ccc(N4CCN(C5CC5)CC4)cc3)c3n[nH]cc3c2c1 [Example #179, [4-(4-Cyclopropyl-piperazin-1-yl)-phenyl]-(8-methoxy-2H-pyrazolo[3,4-c]quinolin-4-yl)-amine]
21 | 7.00 to 8.00 | 7.00 to 8.00 | > 5.30 | CCN1CCN(c2ccc(Nc3nc4ccc(OC)cc4c4c[nH]nc34)cc2F)CC1 [Example #240, [4-(4-ethyl-piperazin-1-yl)-3-fluorophenyl]-(8-methoxy-2H-pyrazolo[3,4-c]quinolin-4-yl)-amine]
22 | 7.00 to 8.00 | > 8.00 | > 5.30 | COc1ccc2nc(Nc3ccc4cc(C(=O)O)ccc4c3)c3n[nH]cc3c2c1 [Example #286, 6-((8-methoxy-2H-pyrazolo[3,4-c]quinolin-4-yl)amino)-2-naphthoic acid]
23 | 7.00 to 8.00 | 7.00 to 8.00 | > 5.30 | COc1ccc2nc(Nc3ccc(CN4CCCC4)cc3)c3n[nH]cc3c2c1 [Example #234, (8-Methoxy-2H-pyrazolo[3,4-c]quinolin-4-yl)-(4-pyrrolidin-1-ylmethyl-phenyl)-amine]
24 | 6.00 to 7.00 | 6.00 to 7.00 | > 5.30 | COc1cc(OC)c2nc(Nc3ccc(N4CCN(C5CC5)CC4)cc3)c3n[nH]cc3c2c1 [Example #252, [4-(4-Cyclopropyl-piperazin-1-yl)-phenyl]-(6,8-dimethoxy-2H-pyrazolo[3,4-c]quinolin-4-yl)-amine]
25 | 7.00 to 8.00 | 7.00 to 8.00 | > 5.30 | CNS(=O)(=O)c1cccc(Nc2nc3ccc(OC)cc3c3c[nH]nc23)c1 [Example #348, 3-((8-methoxy-2H-pyrazolo[3,4-c]quinolin-4-yl)amino)-N-methylbenzenesulfonamide]
26 | 6.00 to 7.00 | 6.00 to 7.00 | > 5.30 | CC(=O)N1CCN(c2ccc(Nc3nc4ccc(F)cc4c4cn[nH]c34)cc2)CC1 [Example #323, 1-(4-(4-((8-fluoro-3H-pyrazolo[3,4-c]quinolin-4-yl)amino)phenyl)piperazin-1-yl)ethan-1-one]
27 | > 8.00 | 6.00 to 7.00 | > 5.30 | CN1CCN(c2ccc(Nc3nc4ccc(I)cc4c4cn[nH]c34)cc2)CC1 [Example #333, 8-iodo-N-(4-(4-methylpiperazin-1-yl)phenyl)-3H-pyrazolo[3,4-c]quinolin-4-amine]
28 | > 8.00 | 7.00 to 8.00 | > 5.30 | COc1ccc2nc(Nc3ccc(N4CCN(CC5CC5)CC4)cc3)c3n[nH]cc3c2c1 [Example #272, [4-(4-Cyclopropylmethyl-piperazin-1-yl)-phenyl]-(8-methoxy-2H-pyrazolo[3,4-c]quinolin-4-yl)-amine]
29 | 7.00 to 8.00 | 7.00 to 8.00 | > 5.30 | COc1ccc2nc(Nc3ccc(N4CCN(CCN(C)C)CC4)cc3)c3n[nH]cc3c2c1 [Example #281, {4-[4-(2-Dimethylamino-ethyl)-piperazin-1-yl]-phenyl}-(8-methoxy-2H-pyrazolo[3,4-c]quinolin-4-yl)-amine]
